Source: PubChem BioAssay (NCI)
Several values for one entry are separate records, joined by “and”; a condition that tells them apart may be missing. Equal entries are not always repeated.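 Method: 48-hour compound exposure of cells in 96-well plates, five concentrations, linear interpolation of endpoints. The concentration for 50% growth inhibition is given as GI50. At the TGI there is no net growth.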

Key:
Test in all cases: inhibition of tumour cell growth, NCI panel, 48 h
[1] = test system: 786-0 renal
[2] = test system: A498 renal
[3] = test system: A549 NSCLC
[4] = test system: ACHN renal
[5] = test system: BT-549 breast
[6] = test system: CAKI-1 renal
[7] = test system: CCRF-CEM leukemia
[8] = test system: COLO 205 colon
[9] = test system: DU-145 prostate
[10] = test system: EKVX NSCLC
[11] = test system: HCC-2998 colon
[12] = test system: HCT-116 colon
[13] = test system: HCT-15 colon
[14] = test system: HL-60(TB) leukemia
[15] = test system: HOP-62 NSCLC
[16] = test system: HOP-92 NSCLC
[17] = test system: HS 578T breast
[18] = test system: HT29 colon
[19] = test system: IGROV1 ovarian
[20] = test system: K-562 leukemia
[21] = test system: KM12 colon
[22] = test system: LOX IMVI melanoma
[23] = test system: M14 melanoma
[24] = test system: MALME-3M melanoma
[25] = test system: MCF7 breast
[26] = test system: MDA-MB-231 breast
[27] = test system: MDA-MB-435
[28] = test system: MDA-N
[29] = test system: MOLT-4 leukemia
[30] = test system: NCI-H226 lung
[31] = test system: NCI-H23 lung
[32] = test system: NCI-H460 lung
[33] = test system: NCI-H522 lung
[34] = test system: NCI/ADR-RES ovarian
[35] = test system: OVCAR-3 ovarian
[36] = test system: OVCAR-4 ovarian
[37] = test system: OVCAR-5 ovarian
[38] = test system: OVCAR-8 ovarian
[39] = test system: PC-3 prostate
[40] = test system: RPMI-8226 leukemia
[41] = test system: RXF 393 renal
[42] = test system: SF-268 CNS
[43] = test system: SF-295 CNS
[44] = test system: SK-MEL-28 melanoma
[45] = test system: SK-MEL-5 melanoma
[46] = test system: SK-OV-3 ovarian
[47] = test system: SN12C renal
[48] = test system: SNB-19 CNS
[49] = test system: SNB-75 CNS
[50] = test system: SR leukemia
[51] = test system: SW-620 colon
[52] = test system: T-47D breast
[53] = test system: TK-10 renal
[54] = test system: U251 CNS
[55] = test system: UACC-62 melanoma
[56] = test system: UO-31 renal

SMILES: N#Cc1c(-c2ccccc2)cc(-c2ccccc2)n(C2OC(CO)C(O)C(O)C2O)c1=S (stereo unspecified)
- TGI [1]: > 100 µM
- TGI [2]: 52.5 µM
- TGI [3]: > 100 µM
- GI50 [4]: 30.7 µM and 66.6 µM
- TGI [4]: > 100 µM
- TGI [5]: 80.6 µM and > 100 µM
- GI50 [6]: 38.1 µM and > 100 µM
- TGI [6]: > 100 µM
- GI50 [7]: 12.5 µM and 29.2 µM
- TGI [7]: 57.4 µM and > 100 µM
- GI50 [8]: 17.9 µM and 43 µM
- TGI [8]: 45.9 µM and > 100 µM
- GI50 [9]: 42.2 µM and > 100 µM
- TGI [9]: > 100 µM
- TGI [10]: > 100 µM
- GI50 [11]: 26.4 µM and 93.8 µM
- TGI [11]: 91 µM and > 100 µM
- TGI [12]: 46.9 µM and > 100 µM
- GI50 [13]: 31 µM and 80.8 µM
- TGI [13]: > 100 µM
- TGI [14]: > 100 µM
- GI50 [15]: 34.3 µM and 72.8 µM
- TGI [15]: > 100 µM
- GI50 [16]: 46.6 µM and > 100 µM
- TGI [16]: > 100 µM
- TGI [17]: 64.4 µM and > 100 µM
- TGI [18]: 56 µM and > 100 µM
- TGI [19]: > 100 µM
- GI50 [20]: 13.7 µM and 29.4 µM
- TGI [20]: 41.4 µM and > 100 µM
- TGI [21]: > 100 µM
- TGI [22]: 37.7 µM and 92.3 µM
- GI50 [23]: 25.1 µM and > 100 µM
- TGI [23]: 62.6 µM and > 100 µM
- GI50 [24]: 24.9 µM and > 100 µM
- TGI [24]: 62.5 µM and > 100 µM
- TGI [25]: 78 µM and > 100 µM
- GI50 [26]: 7.15 µM and 23.9 µM
- TGI [26]: 31.1 µM and 83 µM
- TGI [27]: 44 µM and 67.9 µM
- TGI [28]: 60.5 µM and > 100 µM
- GI50 [29]: 11.3 µM and 23.5 µM
- TGI [29]: 51.7 µM and 85.8 µM
- GI50 [30]: 22.3 µM and 69.8 µM
- TGI [30]: 49.1 µM and > 100 µM
- TGI [31]: 58.9 µM and 89.7 µM
- TGI [32]: 82.8 µM and > 100 µM
- GI50 [33]: 17.1 µM and 38.9 µM
- TGI [33]: 35.6 µM and > 100 µM
- TGI [34]: > 100 µM
- GI50 [35]: 18 µM and 73 µM
- TGI [35]: 34.3 µM and > 100 µM
- GI50 [36]: 37.1 µM and > 100 µM
- TGI [36]: > 100 µM
- GI50 [37]: 35.8 µM and > 100 µM
- TGI [37]: > 100 µM
- TGI [38]: > 100 µM
- TGI [39]: > 100 µM
- TGI [40]: 56.3 µM and > 100 µM
- TGI [41]: > 100 µM
- TGI [42]: > 100 µM
- GI50 [43]: 19.5 µM and 41.1 µM
- TGI [43]: 44.4 µM and > 100 µM
- GI50 [44]: 18.8 µM and 53.5 µM
- TGI [44]: 47.4 µM and > 100 µM
- TGI [45]: 29.1 µM and > 100 µM
- GI50 [46]: 40.3 µM and 85 µM
- TGI [46]: > 100 µM
- GI50 [47]: 36.8 µM and 84.1 µM
- TGI [47]: > 100 µM
- TGI [48]: > 100 µM
- TGI [49]: > 100 µM
- TGI [50]: > 100 µM
- TGI [51]: > 100 µM
- GI50 [52]: 6.51 µM and 29.1 µM
- TGI [52]: 34.5 µM and > 100 µM
- TGI [53]: > 100 µM
- TGI [54]: 35.9 µM
- GI50 [55]: 15.9 µM and 35.5 µM
- TGI [55]: 33.9 µM and > 100 µM
- TGI [56]: > 100 µM
